Laboratory results published in US11939290B2, “Heterocycle-containing amino acid compound and salt thereof, complex, composition, fertilizer and plant growth regulator” (TOKUSHIMA UNIVERSITY, priority 2018, dated 2024).

Experiment: Stability test in acidic aqueous solution (1H NMR residual rate)
Format: physicochemical
Conditions: for residual rate, lapsed day 0 / residual rate, lapsed day 10 / residual rate, lapsed day 20 / residual rate, lapsed day 27: acidic aqueous solution in heavy water; for residual rate, lapsed day 0: pH 2.0, 0 day (immediately after preparation); for residual rate, lapsed day 10 / residual rate, lapsed day 20 / residual rate, lapsed day 27: pH 2.0, stored at 25° C. sealed, protected from light; for residual rate, lapsed day 10: 10 days; for residual rate, lapsed day 20: 20 days; for residual rate, lapsed day 27 / stability in an acidic aqueous solution compared with derivatives (X), (X′) and (Y): 27 days; for stability in an acidic aqueous solution compared with derivatives (X), (X′) and (Y): acidic aqueous solution pH 2, 25° C.
Protocol: In this stability test, whether acidic aqueous solutions prepared using the derivatives (X), (X′) and (Y), and 2′-deoxymugineic acid (DMA) and a compound having the following structure (hereinafter, referred to as “PDMA”) were stable along with the lapse of time, i.e., whether the derivatives were difficult to decompose was evaluated.
The following test solutions (a), (b) and (c) were prepared using the derivatives (X), (X′) and (Y). Also, the following test solutions (d) and (e) were prepared using DMA and PDMA. The test solution (a) was prepared by dissolving 3 μmol of the substance in 0.5 mL of heavy water. Other test solutions were prepared by dissolving 0.03 mmol of the substance in 0.5 mL of heavy water. The pH of the test solution was 2. • Test solution (a) for Test Example 1: acidic aqueous solution of the derivative (X) • Test solution (b) for Test Example 2: acidic aqueous solution of the derivative (X′) • Test solution (c) for Test Example 3: acidic aqueous solution of the derivative (Y) • Test solution (d) for Referential Example 1: acidic aqueous solution of DMA • Test solution (e) for Referential Example 2: acidic aqueous solution of PDMA
An NMR measuring tube (manufactured by Kanto Chemical Co., Inc., φ5 mm×7 inch) was filled with each of the test solutions (a) to (e), and ^1H NMR measurement was performed. ^1H NMR was measured immediately after (0 day), 10 days after, 20 days after, and 27 days after the preparation of the test solution. The test solutions were stored at room temperature (25° C.) in a sealed state in which they were placed in the NMR measuring tubes, while being protected from light.
Attention was paid to 4.4 ppm (1H, q) for DMA, 4.4 ppm (1H, q) for PDMA, 4.3 ppm (1H, dd) for the derivative (X), 4.3 ppm (1H, dd) for the derivative (X′), and 4.3 ppm (1H, dd) for the derivative (Y) in the resulting ^1H NMR spectrum. […] On the other hand, in the case of the test solutions (d) and (e), peaks derived from decomposition products of DMA and PDMA were detected with the lapse of the storage time. The chemical shifts of the peaks were 4.5 ppm (t, 1H) for DMA and 4.5 ppm (1H, t) for PDMA. Thus, from the integrated values, the residual rate of DMA or PDMA after 10, 20, and 27 days was calculated based on the following calculation formula (see Table 1 and FIG. 1):
(Integrated value of measured compound)/{(integrated value of measured compound)+(integrated value of decomposition product)}×100

O=C(O)C(O)CCNC(CCN1CCC1C(=O)O)C(=O)O (stereo not shown) [DMA, 2′-deoxymugineic acid]
residual rate, lapsed day 0: 100%
residual rate, lapsed day 10: 77.3%
residual rate, lapsed day 20: 68.2%
residual rate, lapsed day 27: 59.3%
stability in an acidic aqueous solution compared with derivatives (X), (X′) and (Y): inferior

O=C(O)C(O)CCNC(CCN1CCCC1C(=O)O)C(=O)O (stereo not shown) [PDMA]
residual rate, lapsed day 0: 100%
residual rate, lapsed day 10: 68.4%
residual rate, lapsed day 20: 61.7%
residual rate, lapsed day 27: 55.2%
stability in an acidic aqueous solution compared with derivatives (X), (X′) and (Y): inferior
